This passage reports TGI results from PubChem BioAssay (NCI).

Holding throughout (assay): growth of human tumour cells (NCI), 48 h
In experiment [1] the test system is SF-268 CNS.
Experiment [2] deals with XF 498 CNS.
For experiment [3], the system named is HOP-92 NSCLC.
The subject of experiment [4] is DMS 273 small cell lung.
Experiment [5] has as its system UACC-257 melanoma.
Experiment [6] concerns K-562 leukemia.
For experiment [7], the system named is SNB-75 CNS.
Experiment [8] relates to A549 NSCLC.
Experiment [9] deals with SF-539 CNS.
Experiment [10] concerns SK-MEL-5 melanoma.

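Following 48 hours of exposure in 96-well plates, responses at five concentrations were used to interpolate endpoints linearly. TGI marks complete inhibition of growth.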 Some results are limits rather than exact numbers.

In the case of `O=NN(CCCl)C(=O)NC1CCC(=O)NC1=O` (stereo not given), the TGI in [1] amounted to 615 µM; in [2], 265 µM; in experiment [3] it was 377 µM; in experiment [4], 634 µM; in [5], 975 µM; in [6] it was 595 µM. Also, the TGI in [7] worked out at 396 µM; in experiment [8] it was 811 µM; in experiment [9], 309 µM; in experiment [10] it was 273 µM.

As for `O=C(O)COc1ccc(C(=O)/C(SS/C(C(=O)c2ccc(OCC(=O)O)c(Cl)c2Cl)=C2\C=C(c3ccc(Br)cc3)SS2)=C2/C=C(c3ccc(Br)cc3)SS2)c(Cl)c1Cl`, the TGI in experiment [1] was 34 µM; in experiment [2] it was 9.89 µM; in experiment [3], 16 µM; in [4], > 100 µM; in [5], > 67.4 µM; in experiment [6] it was > 100 µM. For the same molecule, the TGI was 45.4 µM in [7], > 100 µM in experiment [8], 26.2 µM in [9] and 43.1 µM in [10].
